One assay addresses SARM1 TIR (Homo sapiens (Human), UniProt Q6SZW1). Kind of assay: SARM1 TIR-based assay (bacterially expressed, tagged SARM1 TIR fragment on beads). Type of assay: biochemical. The conditions noted are these: for Inhibitor: inhibitor of SARM1 TIR NAD cleavage activity; for Substrate: substrate of SARM1 TIR NAD cleavage activity. The source says:
The present Example describes a SARM1 TIR-based Assay. This assay is similar to the assay described in Example 1, but allows for the identification and/or characterization of compounds that directly interact with the TIR domain, whereas the assay described in Example 1 can also identify compounds that disrupt SAM domain interactions. This assay makes use of the bacterial expression of a tagged version of the SARM1 TIR fragment that can be affinity purified. Displaying this artificial SARM1 TIR domain on a solid surface (i.e. affinity beads) generates an active NAD+ cleavage enzyme.
The TIR domain of SARM1 was tagged with a tandem STREP-TAG® at the N-terminus, and a polyhistidine tag at the C-terminus, and was cloned into a pET30a+ plasmid. The construct was then transformed into SHuffle® T7 Express Competent E. coli (New England BioLabs, Ipswich, MA) and single colonies were grown overnight. The next day, cultures were diluted in LB media, grown at 30° C. until they reached A600=0.4-0.8, when IPTG (0.5 mM final concentration) was added. The bacteria were grown for an additional 4 h, pelleted by centrifugation, washed with PBS and stored at −80° C. For protein purification, the frozen bacterial pellet was thawed on ice, resuspended in binding buffer (without protease inhibitors) and incubated with 100 μg/mL lysozyme for 15 min on ice. Protease inhibitor cocktail was then added and the cells were lysed by sonication.
The SARM1 TIR protein was first purified by Strep Tag affinity methods where bacterial lysates were incubated with […] (STREP-TACTIN®, IBA GmBH, Gottingen Germany) type 3 XT beads suspension (IBA Lifesciences) for 30 min. The beads were then washed three times with binding buffer, and bound proteins were eluted from MagStrep type 3 XT beads with 22.5 mM biotin for 25 min. Supernatant containing the eluted protein was separated from MagStrep beads, and incubated with 10 μL Co2+ DYNABEAD® (ThermoFisher Scientific, Waltham, MA) suspension for 30 min to bind SARM1-TIR proteins via the His tag. The beads were then washed at least two times with binding buffer and resuspended in 100 μL of binding buffer for NADase assay.
Ten microliters of purified SARM1-TIR laden beads were incubated with 5 μM NAD+ in reaction buffer (92.4 mM NaCl and 0.64×PBS). Reactions were carried out at 25° C. for the indicated amount of time and stopped by addition of 1M of perchloric acid (HClO4) and placing the tube on ice. NAD+ metabolites were extracted using HClO4/K2CO3 method and quantified by HPLC (see metabolite measurement below). For LC-MS/MS analysis, the extraction was performed using 50% methanol in distilled water and chloroform (see LC-MS/MS metabolite measurement below). […] Select potent inhibitors (622608, 622689) identified from SARM1 SAM-TIR lysate screen were added to the reaction at 5 μM. NAD normalized to control at 0 min.
Metabolites were isolated from enzyme reaction mixture by extracting with 1M HClO4, then neutralized with 3M K2CO3, and followed by separation by centrifugation. The supernatant (90 μL) containing the extracted metabolites was mixed with 0.5M Potassium Phosphate buffer (10 μL) and metabolites were analyzed by HPLC (Nexera X2) with KINETEX® (100×3 mm, 2.6 μm; PHENOMENEX®) column and metabolites are monitored with absorbance at 254 nm. Internal standards for NAD+, Nicotinamide (Nam), ADP Ribose (ADPR) were used to generate standard curves for quantification of the respective compounds. The levels for each compound in each experimental sample was normalized to the 0 min time point that was analyzed concurrently.
These analogs were tested using an assay that makes use of a bacterially-expressed tagged version of the SARM1 TIR fragment, as described in Example 2. Displaying this artificial SARM1 TIR domain on a solid surface (i.e. affinity beads) generates an active NAD+ cleavage enzyme.

For the next assay, the target named is human SARM1 SAM-TIR (Homo sapiens (Human), UniProt Q6SZW1). Put plainly: biochemical. The following applies: for ADPR Production (%) / NAD Consumption (%): single point screening at 150 μM.
Another assay has as its target SARM1 SAM-TIR lysate (Homo sapiens (Human), UniProt Q6SZW1). Kind of assay: HPLC-based SARM1 SAM-TIR NADase assay 1 (inhibitor screen, NAD+/ADPR ratio). The format is biochemical. The method, then: NRK1-HEK293T cells were seeded onto 150 cm^2 plates at 20×10^6 cells per plate. The next day, the cells were transfected with 15 μg FCIV-SST (SAM-TIR expression plasmid, SEQ ID NO: 9) using X-[…]™ 9 DNA Transfection Reagent (Roche product #06365787001). The cultures were supplemented with 1 mM NR at time of transfection to minimize toxicity from SAM-TIR overexpression. Forty-eight hours after transfection, cells were harvested, pelleted by centrifugation at 1,000 rpm (Sorvall ST 16R centrifuge, Thermo Fisher), and washed once with cold PBS (0.01 M phosphate buffered saline NaCl 0.138 M; KCl 0.0027 M; pH 7.4). The cells were resuspended in PBS with protease inhibitors (cOmplete™ protease inhibitor cocktail, Roche product #11873580001) and cell lysates were prepared by sonication (Branson Sonifer 450, output=3, 20 episodes of stroke). […] Protein concentration was determined by the Bicinchoninic (BCA) method and used to normalize lysate concentrations. […]
Reaction mixtures were prepared on ice by mixing SARM1 SAM-TIR cell lysate (0.14 μg total protein), compound stock (5 μM final concentration), and PBS (pH 7.4) to a final volume of 12 μl. […] The supernatant was transferred and analyzed by HPLC (Shimadzu Nexera X2) with KINETEX® (100×3 mm, 2.6 μm; PHENOMENEX®) column and metabolites were monitored with absorbance at 254 nm.
To identify inhibitors of SARM1 NADase activity, the levels of NAD+ and the enzymatic cleavage product ADPR in the reactions were quantified by HPLC. From these values, the NAD+/ADPR ratio for each compound was calculated and the ratio used as a measure of NAD+ cleavage activity (Note: there is a small residual but detectable ADPR signal in control samples derived from the HEK293 lysate). […]
The NAD+/ADPR ratio was used to determine the NAD+ cleavage activity of the SARM1 SAM-TIR lysate using the HPLC based assay 1. It will be appreciated that any precise, quantitative method of measuring NAD+ levels could be used for the detection of SARM1 NADase activity. […]

[1] abbreviates: 10 point curve 0.01-250 uM, read-out: IC50 (μM, ADPR Production).
[2] abbreviates: 10 point curve 0.01-250 uM, read-out: IC50 (μM, NAD Consumption).
The mark [3] stands for this setting: NAD consumption, 7 point curve 0-about 6 uM, read-out: IC50.

Molecules are shown by their SMILES. Read-outs that look alike come from different tables or passages of the source.

Sequence of SARM1 SAM-TIR lysate (Q6SZW1 other isoform, or with tags, fused parts or gaps): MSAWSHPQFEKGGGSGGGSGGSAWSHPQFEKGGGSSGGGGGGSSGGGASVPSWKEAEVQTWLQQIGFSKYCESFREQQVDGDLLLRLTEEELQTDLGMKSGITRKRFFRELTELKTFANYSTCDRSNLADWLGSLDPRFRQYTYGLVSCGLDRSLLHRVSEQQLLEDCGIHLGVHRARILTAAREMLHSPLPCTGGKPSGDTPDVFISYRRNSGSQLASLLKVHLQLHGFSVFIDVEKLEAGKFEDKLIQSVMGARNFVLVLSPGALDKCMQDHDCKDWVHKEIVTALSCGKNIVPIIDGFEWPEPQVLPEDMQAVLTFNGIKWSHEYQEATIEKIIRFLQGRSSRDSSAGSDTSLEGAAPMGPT
Sequence of SARM1 TIR (Q6SZW1 other isoform, or with tags, fused parts or gaps): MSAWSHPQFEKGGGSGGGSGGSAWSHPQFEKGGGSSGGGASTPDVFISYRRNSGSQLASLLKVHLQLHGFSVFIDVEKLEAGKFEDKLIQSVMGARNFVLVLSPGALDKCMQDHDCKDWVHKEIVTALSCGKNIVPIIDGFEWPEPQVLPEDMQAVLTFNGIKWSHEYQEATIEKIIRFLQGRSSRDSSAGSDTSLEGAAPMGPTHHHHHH
Excerpt for human SARM1 SAM-TIR: When these NRK1-expressing cells are supplemented with NR, NAD+ levels are augmented and cell viability is enhanced to enable efficient production and purification of the constitutively active human SARM1 SAM-TIR protein fragment. To express SARM1 SAM-TIR, the SARM1 N-terminal auto-inhibitory domain was deleted, keeping only the initiator Met. […] The fragment encoding the SARM1 SAM-TIR protein was cloned into the FCIV expression construct by standard methods to generate the FCIV-SST vector.
NRK1-HEK293T cells were seeded onto 150 cm^2 plates at 20×10^6 cells per plate in 25 mL growth medium comprised of 90% DMEM (Gibco 11965-084) and 10% FBS (Sigma F0926). The next day, cells were transfected by first premixing 15 ug FCIV-SST SST (SAM-TIR expression plasmid from Washington University) with 45 ul X-tremeGENE 9 DNA Transfection Reagent (Roche product #06365787001) and 750 ul OptiMEM (Gibco 31985062) and then adding this mix directly to the cells. […] Forty-eight hours after transfection, cells were harvested, pelleted by centrifugation at 1,000 rpm (Eppendorf Centrifuge 5804R, 15 Amp Version), and washed once with cold PBS (0.01 M phosphate buffered saline NaCl 0.138 M; KCl 0.0027 M; pH 7.4). The cells were resuspended in 0.5 ml PBS with protease inhibitors (Complete protease inhibitor cocktail, Roche product #11873580001). Cell lysates were prepared by sonication (Misonix Microson Ultrasonic Cell Disruptor, output=3, 20 episodes of stroke). The lysates were centrifuged at 12,000×g for 10 min at 4° C. (Eppendorf Centrifuge 5415C) to remove cell debris and the aliquots of supernatant (containing SARM1 SAM-TIR protein) were stored at −80° C. for later use. Protein concentration was determined by the Bicinchoninic (BCA) method and used to normalize lysate concentrations.
Reaction mixtures were prepared on ice by mixing 10 ul of SARM1 SAM-TIR cell lysate (320 fold dilution of lysate 11-3-2016, or 80 fold lysate dilution for assessment of time dependence) in PBS (pH 7.4) with 5 ul of compound stock. Compounds were first dissolved DMSO at 10 mM (final stock concentration). A 10 point compound dilution curve was prepared first with a 20 ul to 40 ul serial dilution in DMSO, followed by a 10 fold dilution (12 ul+108 ul) in PBS.

`CC(=O)c1cccnc1` [3-acetylpyridine]: at SARM1 TIR, the Inhibitor entry is “No” and the Substrate result is recorded as “No”.
Regarding `NC(=O)c1ccc(N)nc1` [6-aminonicotinamide], at SARM1 TIR, the Inhibitor entry is “No” and the Substrate result was “No”.
Turning to `NC(=O)c1ccccc1` [Benzamide], at SARM1 TIR, the Inhibitor result was “No” and the Substrate result is listed as “No”.
As to `CN(C)c1nc(=Nc2cccc(Cl)c2)ss1` [Compound 622689], on SARM1 TIR (compound at 5 μM, 5 μM NAD+), the “inhibition of NADase activity of purified SARM1 TIR” value was “inhibit NADase activity of purified SARM1 TIR”.
As to `NC(=O)C1CCCc2c1[nH]c1ccc(Cl)cc21` (stereo not shown) [Ex-527], at SARM1 TIR, the Substrate entry is recorded as “No”.
Turning to `Cc1c(OCC(F)(F)F)ccnc1C[S+]([O-])c1nc2ccccc2[nH]1` (stereo not shown) [I^A-2, lansoprazole], the values for the IC50 at human SARM1 SAM-TIR (setting [1]) and on human SARM1 SAM-TIR (setting [2]) were 3.3 µM and 3.5 µM, respectively.
Take `COCCCOc1ccnc(C[S+]([O-])c2nc3ccccc3[nH]2)c1C` (stereo not shown) [I^A-6, rabeprazole]: the inhibition (as a rule, the change of the read-out against control, counted positive when it falls) at 10 µM at SARM1 SAM-TIR lysate (at 10 μM, 5 μM NAD) came to 95%. Moreover, on SARM1 SAM-TIR lysate (at 30 μM, 5 μM NAD), the inhibition at 30 µM is 98.8%. In addition, the values for the IC50 at human SARM1 SAM-TIR (setting [1]) and at human SARM1 SAM-TIR (setting [2]) were 3.2 µM and 3.3 µM, respectively.
Turning to `COc1ccc2[nH]c([S+]([O-])Cc3ncc(C)c(OC)c3C)nc2n1` (stereo not shown) [I^A-8, tenatoprazole], the “identified as SARM1 NADase inhibitor in initial screening” value at SARM1 SAM-TIR lysate was “SARM1 NADase inhibitors”. For the same compound, the IC50 (in general, the concentration that inhibits the measured activity by half) at human SARM1 SAM-TIR (setting [1]) was found to be 8.7 µM. For the same compound, at human SARM1 SAM-TIR (setting [2]), the half-inhibitory concentration (IC50) was determined as 7.4 µM. On human SARM1 SAM-TIR, the “ADPR Production (%)” value is “C (“C” indicating <50%)” and the “NAD Consumption (%)” value is “B (“B” indicating between 50%-75%)”.
As for `Cc1c(OCC(F)(F)F)ccnc1CSc1nc2ccccc2[nH]1` [I^A-9, lansoprazole sulfide], at human SARM1 SAM-TIR, the “ADPR Production (%)” value is recorded as “A (“A” indicating >75%)” and the “NAD Consumption (%)” value is on record as “A (“A” indicating >75%)”.
As for `Cc1c(OCC(F)(F)F)ccnc1CS(=O)(=O)c1nc2ccccc2[nH]1` [I^A-10, lansoprazole sulfone], at human SARM1 SAM-TIR, the “ADPR Production (%)” value was “A (“A” indicating >75%)” and the “NAD Consumption (%)” value was “A (“A” indicating >75%)”.
On to `COc1ccc2c(c1)nc([S+]([O-])Cc1ncc(C)c(OC)c1C)n2C` (stereo not shown) [I^A-11, N-methyl omeprazole], for which, on human SARM1 SAM-TIR, the “ADPR Production (%)” value was “A (“A” indicating >75%)” and the “NAD Consumption (%)” value is on record as “A (“A” indicating >75%)”.
Turning to `COc1ccc2[n-]c([S+]([O-])Cc3ncc(C)c(OC)c3C)nc2c1.[Na+]` (stereo not shown) [I^A-13, sodium esomeprazole], on human SARM1 SAM-TIR, the “ADPR Production (%)” value is recorded as “B (“B” indicating between 50%-75%)” and the “NAD Consumption (%)” value is “A (“A” indicating >75%)”.
Consider `CN(C)c1n/c(=N/c2cccc(Cl)c2)ss1` [I^B-1], for which the IC50 at human SARM1 SAM-TIR (setting [3]) is roughly 0.7 µM.
Same read-out and setting: the result for `CN(C)c1n/c(=N/Cc2ccco2)ss1` [I^B-2] reads roughly 0.15 µM.
Take `O=Cc1cccnc1` [Nicotinaldehyde]: on SARM1 TIR, the Inhibitor result was “No” and the Substrate entry is recorded as “No”.
With `NC(=O)c1ccc[n+]([C@@H]2O[C@H](COP(=O)([O-])OP(=O)(O)OC[C@H]3O[C@@H](n4cnc5c4ncn4ccnc54)[C@H](O)[C@@H]3O)[C@@H](O)[C@H]2O)c1` [Nicotinamide 1, N6-ethenoadenine dinucleotide], the Substrate entry at SARM1 TIR was “No”.
As for `NC(=O)c1ccc[n+](C2OC(COP(=O)(O)OP(=O)(O)OCC3OC(n4cnc5c(=O)[nH]cnc54)C(O)C3O)C(O)C2O)c1` (stereo not shown) [Nicotinamide Hypoxanthine dinucleotide], on SARM1 TIR, the Inhibitor entry was “inhibitor and Yes”; the Substrate entry was “substrate and Yes”.
In the case of `NC(=O)C1=CN([C@@H]2O[C@H](COP(=O)(O)OP(=O)(O)OC[C@H]3O[C@@H](n4cnc5c(N)ncnc54)[C@H](OP(=O)(O)O)[C@@H]3O)[C@@H](O)[C@H]2O)C=CC1` [Nicotinamide adenine dinucleotide 2′-phosphate, reduced], on SARM1 TIR, the Inhibitor result is on record as “Unclear”.
In the case of `NC(=S)c1cccnc1` [Thionicotinamide], at SARM1 TIR, the Inhibitor entry was “No” and the Substrate entry is “No”.

Source of the values: patent US11903935B2, “Inhibitors of SARM1 NADase activity and uses thereof” (Washington University, priority 2016, dated 2024).
